Measured values as given in patent US20230277483A1, “COMPOSITIONS AND METHODS TO TREAT INFLAMMATION” (University of Iowa Research Foundation, priority 2022, published 2023).

Legend:
Td (ATCC 35405) = assay: Bacterial proliferation measured by OD600; format: cell-based, Treponema denticola; conditions: HCA at 0.1 μM; anaerobic culture
Procedure: (§1) Sg metabolites promote commensal bacterial proliferation and inhibit periodontopathogenic bacterial proliferation and colonization. Commensal bacteria, Sg, S. sanguinis (Ss, ATCC10556), S. mitis (Sm, ATCC49456) and S. oralis (So, ATCC 35037) were cultured in BHI medium. In addition, pathogenic bacteria, Pg was cultured using BHI and Tf (ATCC43037), and Td (ATCC 35405) were grown in Thioglycollate medium with vitamin K and Hemin in 90% N2, 5% H2, 5% CO2. The Sg metabolites were diluted using DMEM and added to the bacteria with the similar OD600 value. The same amount of DMEM was used as a control. During the exponential growth of bacteria, the OD600 value was measured to determine the proliferation. […] In addition, to determine the function of Sg metabolites on Pg colonization, Pg were inoculated in 24-well plates containing BHI or BHI supplemented with DMEM or Sg metabolites. […]
(§2) HCA promotes proliferation of health related bacteria and inhibits proliferation and attachment of periodontopathogenic bacteria. […] The composition of the microbiomes was determined by amplifying the V3 and V4 regions of the 16S rRNA genes. Raw data in FASTQ format were filtered and denoised using DADA2 (Divisive Amplicon Denoising Algorithm) to generate amplicon sequence variants (ASV) or operational taxonomical units (OTUs) that were then analyzed by QIIME2.

S. mitis (Sm, ATCC49456) = assay: Bacterial proliferation (growth profile); format: cell-based, Streptococcus mitis; conditions: HCA at 0.1 μM; aerobic culture
Procedure: as §1, §2

3T3-L1 = assay: TNF-induced inflammation in differentiated white adipocytes; format: cell-based, mouse; conditions: 10 ng/ml TNF with 0.1 uM HCA, 24 hr
Procedure: 3T3-L1 (CL-173-ATCC, PMID. 26451286) were grown in DMEM containing 10% fetal bovine serum (FBS) and 1% pen/strep. Cells were induced to differentiate 2 d after reaching confluence by supplementing growth media with 3 nM insulin (Humulin R, Lily, Humulin R U-500, 0002-8501-01), 0.25 nM dexamethasone (Sigma, D4902), 2 uM rosiglitazone (Sigma, R2408) and 0.5 mM 1-methyl-3-isobutyl-xanthine (Sigma, I5879). From day 3 until day 7, cells were maintained in growth media supplemented with 3 nM insulin after which the mature adipocytes were maintained in growth media. Cells were then incubated for 24 hr in the presence or absence of 10 ng/ml TNF (PeproTech, 315-01A) with or without 0.1 uM 6-Hydroxycaproic acid (HCA, Sigma, 515302).
To determine the effects of HCA on adipose-mediated inflammation, 3T3-L1 cells were differentiated into white adipocytes and then exposed to the pro-inflammatory cytokine tumor necrosis factor alpha (TNFa).

[1] = tested on: S. oralis (So, ATCC 35037); assay: Bacterial proliferation measured by OD600; format: cell-based, Streptococcus oralis; conditions: HCA at 0.1 μM; aerobic culture
Procedure: as §1, §2

O=C(O)CCCCCO [HCA, 6-hydroxycaproic acid]
proliferation of T. denticola (Td (ATCC 35405)): significantly inhibits
proliferation of S. mitis (S. mitis (Sm, ATCC49456)): improve proliferation
TNF-induced IL-6 secretion (3T3-L1): significantly reduced
proliferation of S. oralis [1]: improve proliferation
